Assay results from PMC4658182, “The Synthetic Antimicrobial Peptide 19-2.5 Interacts with Heparanase and Heparan Sulfate in Murine and Human Sepsis” (PLoS ONE, 2015).
Like-named read-outs stand apart in the source and are kept apart here.

How the values were obtained:
[1] = Circulating HS-fragments in plasma (ELISA), CLP septic mice; format: in vivo, murine; conditions: CLP-mice (NMRI), 24 h after CLP, peptide i.v. infusion 20 μg/ml, 100 μl/h vs NaCl 0.9%, n = 6 per group, Fig 4, ***p < 0.0001
Description: Levels of circulating HS-fragments in murine plasma were measured using a commercial ELISA kit (No.: E0623Ge, AMS Biotechnology, Oxon, United Kingdom) according to the manufacturer’s instructions. Circulating HS-fragments in plasma were defined by the sum of the HS derived disaccharides obtained after enzymatic cleavage by heparanase. Due to the ELISA´s detection range of 4.69 ng/ml– 300 ng/ml samples were diluted 1:30 in physiological saline (0.9%). The sensitivity of the ELISA is 1.17ng/ml.
(§1) The murine model of polymicrobial sepsis was divided into three steps as described before. Briefly, in a first step 12 NMRI mice underwent a catheterization procedure under general (isoflurane 1% to 2% in oxygen/air mix with a FiO2 of 0.3) and local (0.2 ml lidocaine 2%) anesthesia. A central vein catheter (PE-tube, self-made) was implanted in the jugular vein. After further local infiltration with lidocaine, the neck was closed by single suture. To prevent hypothermia all animals were kept on a heating pad throughout the surgical procedure. Mice were transferred back into the cage to rest for 48h. The i.v.-line was connected to the syringe pump at a rate of 100 μl/h (NaCl 0.9%).
In a second step, general and local anesthesia for cecal ligature and puncture (CLP) was performed as described above. The animal were transferred to the cage and reconnected with the i.v.-line. […]

[2] = tested on: pro-inflammatory cytokines; CD14; conditions: CLP-mice, cited from earlier work
Text: Several studies report an up to 10-fold increase of heparanase expression after stimulation with pro-inflammatory cytokines. […] Accordingly, we detected organ-specific differences of heparanase levels that m ...

[3] = tested on: Gram-negative and Gram-positive bacteria as well as against viruses; conditions: cited from earlier work
Text: (§2) The synthetic antimicrobial peptide 19–2.5 belongs to the class of synthetic anti-lipopolysaccharide peptides (SALP = synthetic anti-LPS peptides). […] We recently reported that peptide 19–2.5 is able to decrease the inflammatory response in murine cells stimulated with both PAM ...

[4] = tested on: mice; conditions: cited from earlier work
Text: as §2

[5] = Isothermal titration calorimetry, binding to HS-fragments; conditions: ITC; for Ka binding constant / Kd / N stoichiometry of binding / ΔG Gibbs free energy / ΔS entropy change: 2 mM peptide titrated 20 times 1.5 μl into 100 μg/ml HS
Description: Isothermal titration calorimetry (ITC) experiments were performed as previously described. Briefly, the binding of peptide 19–2.5 to heparanase or HS-fragments was recorded by measuring the enthalpy change of the reaction at 37°C. For this, a total of 100 μg/ml heparanase (R&D Systems Europe Ltd., Abingdon, United Kingdom) and 200 μg/ml HS-fragments (H7640 Sigma-Aldrich, St. Louis, MO, USA) were dispersed into the calorimetric cell, and 2 mM peptide 19–2.5 was titrated to this dispersion stepwise in 3 μl portions. After exploring experiments, the concentration of HS was 100 μg/ml titrated with 1.5 μl of peptide 19–2.5 (2 mM) 20 times at 37°C.
Fig 5 Isothermal titration calorimetry (ITC). For the ITC experiments, 2 mM peptide 19–2.5 was titrated to this dispersion stepwise in 3 μl portions into (A) 200 μg/ml heparan sulfate-fragments (HS) and (B) 100 μg/ml heparanase (Hep). In each titration, the resulting heat signals P were recorded (peak downwards are exothermic, peaks upwards endothermic reactions) against time (min) and presented in the top parts of Fig 5A and 5B. The integrated enthalpy changes ΔH versus [peptide]:[HS-fragments] (A) and [peptide]:[heparanase] (B) concentration ratios of the single titrations are illustrated in the bottom parts of Fig 5A and 5B.

[6] = tested on: heparanase; test: Plasma heparanase activity, CLP septic mice; format: in vivo, murine; conditions: CLP-mice (NMRI), 24 h after CLP; peptide i.v. infusion 20 μg/ml, 100 μl/h vs NaCl 0.9%; n = 6 per group; Fig 3A
Description: Heparanase activity in human and murine plasma was quantified using the commercial available Heparanase Assay Kit (No.: Ra001-BE-K, AMS Biotechnology, Oxon, United Kingdom) according to the manufacturer’s instructions.
as §1
In a second step, general and local anesthesia for cecal ligature and puncture (CLP) was performed as described above. The animal were transferred to the cage and reconnected with the i.v.-line. Depending on the group, peptide 19–2.5 infusion (20 μg/ml, 100 μl/h) or NaCl 0.9% infusion (100 μl/h) was started.
Finally, in a third step all animals were killed 24 h after CLP. Therefore, the animals were anesthetized as described above, brought to a prone position and the abdomen and thorax were opened. […]

[7] = tested on: murine cells; conditions: cited from earlier work
Text: The synthetic antimicrobial peptide 19–2.5 belongs to the class of synthetic anti-lipopolysaccharide peptides (SALP = synthetic anti-LPS peptides). […] Thus, we investigated the impact of peptide 19–2.5 on levels of circulating HS-fragments in vivo. […] We postulate two ways by which peptide 19–2.5 reduces levels of circulating HS-fragments in mice: […]

[8] = 37°C, 2 mM peptide in 3 μl portions into 200 μg/ml HS-fragments, Fig 5A

peptide 19–2.5: synthetic antimicrobial peptide 19–2.5 belongs to the class of synthetic anti-lipopolysaccharide peptides (SALP = synthetic anti-LPS peptides)
levels of circulating HS-fragments in plasma vs untreated control [1]: significantly decreased in CLP-mice treated with peptide 19–2.5 compared to untreated control animals | mRNA expression of CD14 ([2]; differences between organs): decreases mRNA expression of CD14 | levels of pro-inflammatory cytokines [2]: decreases levels of pro-inflammatory cytokines in CLP-mice | anti-inflammatory activity [3]: shows anti-inflammatory activity against Gram-negative and Gram-positive bacteria as well as against viruses | protection from lethal septic shock [4]: protects mice from lethal septic shock | [Peptide 19–2.5]:[HS] weight ratio at saturation [5, 8]: ~0.6 | heat of reaction on titration to HS-fragments [5, 8]: high exothermic reaction | Ka binding constant ([5]; 37°C, experiment 1): 1.93e+06 M⁻¹ | Kd ([5]; 37°C, experiment 1): 518 nM | N stoichiometry of binding ([5]; 37°C, experiment 1): 0.511 w/w ratio | ΔG Gibbs free energy ([5]; 37°C, experiment 1): -8.918 kcal/mol | ΔS entropy change ([5]; 37°C, experiment 1): 4.46 cal/mol/K | Ka binding constant ([5]; 37°C, experiment 2): 1.52e+07 M⁻¹ | Kd ([5]; 37°C, experiment 2): 65.7 nM | N stoichiometry of binding ([5]; 37°C, experiment 2): 0.475 w/w ratio | ΔG Gibbs free energy ([5]; 37°C, experiment 2): -10.192 kcal/mol | ΔS entropy change ([5]; 37°C, experiment 2): 6.42 cal/mol/K | Ka binding constant ([5]; 37°C, experiment 3): 1.55e+07 M⁻¹ | Kd ([5]; 37°C, experiment 3): 64.5 nM | N stoichiometry of binding ([5]; 37°C, experiment 3): 0.547 w/w ratio | ΔG Gibbs free energy ([5]; 37°C, experiment 3): -10.201 kcal/mol | ΔS entropy change ([5]; 37°C, experiment 3): 10.8 cal/mol/K | Ka binding constant ([5]; 37°C, experiment 4): 1.2e+07 M⁻¹ | Kd ([5]; 37°C, experiment 4): 83.3 nM | N stoichiometry of binding ([5]; 37°C, experiment 4): 0.534 w/w ratio | ΔG Gibbs free energy ([5]; 37°C, experiment 4): -10.046 kcal/mol | ΔS entropy change ([5]; 37°C, experiment 4): 6.77 cal/mol/K | Ka binding constant ([5]; 37°C, mean of n = 4): 1.12e+07 M⁻¹ | N stoichiometry of binding ([5]; 37°C, mean of n = 4): 0.520 w/w ratio | ΔG Gibbs free energy ([5]; 37°C, mean of n = 4): -9.839 kcal/mol | ΔS entropy change ([5]; 37°C, mean of n = 4): 7.11 cal/mol/K | Kd ([5]; 37°C, mean of n = 4, read-out: Kd): 89.2 nM | titration curve shape with HS-fragments ([5]; Fig 5A): S-shaped curve with saturation characteristic for a complex formation | plasma heparanase activity vs untreated control [6]: significant lower heparanase activity compared to untreated control animals | inflammatory response in murine cells stimulated with HS-fragments ([7]; stimulated with HS-fragments in vitro): able to decrease the inflammatory response in murine cells stimulated with HS-fragments in vitro | inflammatory response in murine cells stimulated with PAMPs and DAMPs ([7]; stimulated with both PAMPs and DAMPs): able to decrease the inflammatory response in murine cells stimulated with both PAMPs and DAMPs
